Measured values: the NIST ThermoML archive (doi:10.1021/je800203s)

Experiment: molar heat capacity at constant pressure
Settings: 101.33 kPa

COc1ccc(CC#N)cc1OC [(3,4-dimethoxyphenyl)acetonitrile]
Settings | molar heat capacity at constant pressure [J/K/mol]
234.86 K, Crystal | 200.2
235 K, Crystal | 198.8
237.82 K, Crystal | 201.4
240 K, Crystal | 202
240.78 K, Crystal | 203
244.26 K, Crystal | 204.7
245 K, Crystal | 205.2
247.72 K, Crystal | 206
250 K, Crystal | 208.4
250.62 K, Crystal | 206.7
253.5 K, Crystal | 208.8
255 K, Crystal | 211.6
256.38 K, Crystal | 210.7
259.24 K, Crystal | 213.1
260 K, Crystal | 214.9
262.1 K, Crystal | 214.8
264.94 K, Crystal | 216.4
265 K, Crystal | 218.2
267.89 K, Crystal | 218.3
270 K, Crystal | 221.6
270.93 K, Crystal | 221.1
273.96 K, Crystal | 223.6
275 K, Crystal | 225.2
276.98 K, Crystal | 226.3
279.99 K, Crystal | 228.9
280 K, Crystal | 228.8
283 K, Crystal | 231.4
285 K, Crystal | 232.6
285.98 K, Crystal | 234.1
288.95 K, Crystal | 236.8
290 K, Crystal | 236.6
291.89 K, Crystal | 239.8
294.78 K, Crystal | 242.2
295 K, Crystal | 240.8
297.68 K, Crystal | 245.2
298.15 K, Crystal | 243.5
300 K, Crystal | 245.2
300.71 K, Crystal | 247.1
303.68 K, Crystal | 250.1
305 K, Crystal | 249.8
306.62 K, Crystal | 252.2
309.56 K, Crystal | 254.2
310 K, Crystal | 254.8
312.48 K, Crystal | 256
315 K, Crystal | 260
315.49 K, Crystal | 259.8
318.59 K, Crystal | 261.9
320 K, Crystal | 265.6
321.66 K, Crystal | 267
324.72 K, Crystal | 275
327.73 K, Crystal | 284.8
330.67 K, Crystal | 313
340 K, Liquid | 350.5
342.04 K, Liquid | 352
345 K, Liquid | 353.2
345.02 K, Liquid | 352.7
348.08 K, Liquid | 354.6
350 K, Liquid | 356
351.14 K, Liquid | 356.8
354.19 K, Liquid | 358.7
355 K, Liquid | 358.7
357.24 K, Liquid | 360.1
360 K, Liquid | 361.4
360.28 K, Liquid | 361.3
363.32 K, Liquid | 362.6
365 K, Liquid | 363.9
366.35 K, Liquid | 364.4
369.38 K, Liquid | 366.3
370 K, Liquid | 366.3
372.4 K, Liquid | 367.9
375 K, Liquid | 368.7
375.42 K, Liquid | 368.7
378.43 K, Liquid | 370.1
380 K, Liquid | 371
381.44 K, Liquid | 371.6
384.44 K, Liquid | 373
385 K, Liquid | 373.3
387.44 K, Liquid | 374.5
390 K, Liquid | 375.7
390.43 K, Liquid | 376.1
393.41 K, Liquid | 377.4
395 K, Liquid | 378.4
396.39 K, Liquid | 379.4
399.38 K, Liquid | 380.9
400 K, Liquid | 381.5
